IC50 data for 54 molecules are collected here from patent US10065941B2, “Aminotriazine derivative and pharmaceutical composition comprising the same” (Shionogi & Co., Ltd., priority 2013, dated 2018).

A word on the IC50: it is the concentration that gives 50% inhibition. A low value points to inhibition by little substance.

For the assay, the target named is human P2X3 receptor (Homo sapiens (Human), UniProt P56373). Description: Evaluation of human P2X3 receptor inhibitory activity (Test Example 1). As to conditions: C6BU-1 cell transfected with human P2X3 receptor gene, FLIPR 384. Type of assay: cell-based. A digest of the protocol: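 C6BU-1 cells stably expressing human P2X3, loaded with 4 μM Fluo-3-AM 1 h at 37 °C, preincubated 5 min with test compound, then stimulated with 150 nM ATP solution (stock, pre-dispense) and monitored by FLIPR for 4 min. IC50 derived from maximum fluorescence ratio (post-ATP peak over baseline).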

SMILES strings stand for the structures.

human P2X3 receptor, sequence (P56373 whole entry): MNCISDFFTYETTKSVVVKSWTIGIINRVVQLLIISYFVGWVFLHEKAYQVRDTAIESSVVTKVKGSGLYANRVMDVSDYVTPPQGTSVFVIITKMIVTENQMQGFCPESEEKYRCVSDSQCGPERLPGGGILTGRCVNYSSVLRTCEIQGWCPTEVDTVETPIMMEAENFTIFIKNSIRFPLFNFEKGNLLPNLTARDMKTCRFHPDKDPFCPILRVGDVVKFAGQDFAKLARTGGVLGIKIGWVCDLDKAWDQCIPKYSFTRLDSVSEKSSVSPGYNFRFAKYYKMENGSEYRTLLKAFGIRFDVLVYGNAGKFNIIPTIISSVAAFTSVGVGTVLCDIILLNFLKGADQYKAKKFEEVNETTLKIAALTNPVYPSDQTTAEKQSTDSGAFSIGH

In turn, `NC(=O)NC(=O)Cn1c(=O)[nH]/c(=N\c2ccc(Oc3ccccn3)cc2)n(Cc2ccc(Cl)cc2)c1=O` [Compound R-256] came in with a half-inhibitory concentration (IC50) of 2 nM.
Take `COC(=O)C(C)(C)Cn1c(=O)[nH]/c(=N\c2ccc(Oc3ccc(F)cn3)cc2)n(Cc2ccc(C)cc2)c1=O` [Compound I-037]: the IC50 was 6 nM.
`COC(=O)CCn1c(=O)[nH]/c(=N\c2ccc(Oc3ccccn3)c(Cl)c2)n(Cc2ccc(C)cc2)c1=O` [Compound R-301] had an IC50 of 5 nM.
The value for `Cc1nc(Oc2ccc(/N=c3\[nH]c(=O)n(CC(C)(C)C(=O)O)c(=O)n3Cc3ccc(Cl)cc3)cc2)no1` [Compound R-115] was 65 nM; that for `COC(=O)[C@H](C)[C@H](C)n1c(=O)[nH]/c(=N\c2ccc(Oc3ccc(F)cn3)c(F)c2)n(Cc2ccc(Cl)cc2)c1=O` [Compound I-001] was 44 nM; that for `C[C@H](Cn1c(=O)[nH]/c(=N\c2ccc(Oc3ccccn3)cc2)n(Cc2ccc(Cl)cc2)c1=O)C(=O)O` [Compound I-141] was 14 nM.
The figure for `Cc1ccc(Cn2c(=O)n(CCCC(=O)O)c(=O)[nH]/c2=N\c2ccc(Oc3cccc(F)n3)cc2)cc1` [Compound R-279] is 7 nM; for `O=C(O)c1cccc(-c2ccc(Oc3ccc(/N=c4\[nH]c(=O)[nH]c(=O)n4Cc4ccc(Cl)cc4)cc3)nc2)c1` [Compound R-003] it is 4 nM.
The figure for `CCc1oc2ccc(/N=c3\[nH]c(=O)n(C[C@@H](O)CC(=O)O)c(=O)n3Cc3ccc(Cl)cc3)cc2c1C` [Compound R-178] is 45 nM.
Molecule `COC(=O)[C@@H](C)Cn1c(=O)[nH]/c(=N\c2ccc(Oc3cccc(F)n3)cc2)n(Cc2ccc(C)cc2)c1=O` [Compound I-053] showed an IC50 of 6 nM.
The value for `COC(=O)[C@@H](C)Cn1c(=O)[nH]/c(=N\c2ccc(Oc3cncc(OC)c3)cc2)n(Cc2ccc(Cl)cc2)c1=O` [Compound R-199] was 7 nM.
Turning to `CC(C)(Cn1c(=O)[nH]/c(=N\c2ccc(Oc3ccc(C(F)(F)F)nn3)cc2)n(Cc2ccc(Cl)cc2)c1=O)C(=O)O` [Compound R-031], the midpoint of inhibition, the IC50, lay at 12 nM.
In the case of `CO[C@@H](Cn1c(=O)[nH]/c(=N\c2ccc(Oc3cccc(F)n3)cc2)n(Cc2ccc(Cl)cc2)c1=O)C(=O)O` [Compound I-125], the concentration for half-maximal inhibition (IC50) is 5 nM.
On to `CCOC(=O)C[C@H](O)Cn1c(=O)[nH]/c(=N\c2ccc(Oc3ccc(F)cn3)cc2)n(Cc2ccc(Cl)cc2)c1=O` [Compound I-089], for which the IC50 worked out at 8 nM.
The value for `C[C@@H](Cn1c(=O)[nH]/c(=N\c2ccc(Oc3cc(Cl)ccn3)cc2)n(Cc2ccc(Cl)cc2)c1=O)C(=O)O` [Compound I-065] was 8 nM; that for `COC(=O)[C@H](C)Cn1c(=O)[nH]/c(=N\c2ccc(Oc3ccccn3)cc2)n(Cc2ccc(Cl)cc2)c1=O` [Compound I-131] was 8 nM.
The figure for `O=C(O)C1(Cn2c(=O)[nH]/c(=N\c3ccc(Oc4ncccc4F)cc3)n(Cc3ccc(Cl)cc3)c2=O)CC1` [Compound I-067] is 11 nM.
The figure for `Cc1ccc(Oc2ccc(/N=c3\[nH]c(=O)n(C[C@H](C)C(=O)O)c(=O)n3Cc3ccc(Cl)cc3)cc2)nc1` [Compound I-054] is 5 nM; for `CCOC(=O)[C@H]1C[C@H](n2c(=O)[nH]/c(=N\c3ccc(Oc4ccccn4)cc3)n(Cc3ccc(Cl)cc3)c2=O)C1` [Compound I-170] it is 15 nM.
As to `Cc1nccc(Oc2ccc(/N=c3\[nH]c(=O)n(C[C@H](C)C(=O)O)c(=O)n3Cc3ccc(Cl)cc3)cc2)n1` [Compound R-044], the 50% inhibitory concentration (IC50) stood at 10 nM.
The figure for `COC(=O)[C@@H](C)Cn1c(=O)[nH]/c(=N\c2ccc(Oc3ncccc3F)cc2)n(Cc2ccc(F)cc2F)c1=O` [Compound I-024] is 34 nM; for `CCc1ccc(Oc2ccc(/N=c3\[nH]c(=O)n(C[C@H](C)C(=O)OC)c(=O)n3Cc3ccc(Cl)cc3)cc2)nc1` [Compound I-251] it is 8 nM.
The figure for `O=C(O)CCn1c(=O)[nH]/c(=N\c2ccc(Oc3ccccn3)c(F)c2)n(Cc2ccc(Cl)cc2)c1=O` [Compound R-281] is 7 nM; for `COC(=O)[C@@H](C)Cn1c(=O)[nH]/c(=N\c2ccc(Oc3cccc(F)n3)cc2)n(Cc2ccc(F)cc2F)c1=O` [Compound I-026] it is 17 nM.
The figure for `CCn1c(=O)[nH]/c(=N\c2ccc(Oc3ccc(C(=O)O)c(Cl)n3)cc2)n(Cc2ccc(Cl)cc2)c1=O` [Compound R-066] is 58 nM.
`COC(=O)Cn1c(=O)[nH]/c(=N\c2ccc(Oc3ccccn3)cc2)n(Cc2ccc(Cl)cc2)c1=O` [Compound R-238, 1-(4-chlorobenzyl)-3-(methoxycarbonylmethyl)-6-[4-(2-pyridyloxy)phenylimino]-1,3,5-triazinane-2,4-dione] had an IC50 of 7 nM.
The figure for `COC(=O)[C@H](C)[C@H](C)n1c(=O)[nH]/c(=N\c2ccc(Oc3ccccn3)c(F)c2)n(Cc2ccc(Cl)cc2)c1=O` [Compound I-228] is 21 nM; for `CCn1c(=O)[nH]/c(=N\c2ccc(Oc3ccc(C(=O)OC)c(Cl)n3)cc2)n(Cc2ccc(Cl)cc2)c1=O` [Compound R-064] it is 12 nM; for `Cc1cc(/N=c2\[nH]c(=O)n(CCC(=O)O)c(=O)n2Cc2ccc(Cl)cc2)ccc1Oc1ccccn1` [Compound R-283] it is 28 nM.
The figure for `COC(=O)[C@@H](C)Cn1c(=O)[nH]/c(=N\c2ccc(Oc3cc(OC)ccn3)cc2)n(Cc2ccc(Cl)cc2)c1=O` [Compound I-139] is 10 nM; for `CCn1c(=O)[nH]/c(=N\c2ccc(Oc3ncc(C(=O)O)cc3Cl)cc2)n(Cc2ccc(Cl)cc2)c1=O` [Compound R-016, 1-(4-chlorobenzyl)-6-[4-(3-chloro-5-hydroxycarbonyl-2-pyridyloxy)phenylimino]-3-ethyl-1,3,5-triazinane-2,4-dione] it is 6 nM.
The value for `COC(=O)[C@H](C)[C@H](C)n1c(=O)[nH]/c(=N\c2ccc(Oc3ncccc3F)cc2)n(Cc2ccc(C)cc2)c1=O` [Compound I-095] was 9 nM.
The molecule `C[C@@H](Cn1c(=O)[nH]/c(=N\c2ccc(Oc3ncccc3F)cc2)n(Cc2ccc(F)cc2F)c1=O)C(=O)O` [Compound I-027] came in with a concentration for half-maximal inhibition (IC50) of 39 nM.
The value for `C[C@@H](C(=O)O)[C@H](C)n1c(=O)[nH]/c(=N\c2ccc(Oc3cc(C#N)ccn3)cc2)n(Cc2ccc(Cl)cc2)c1=O` [Compound I-134] was 7 nM; that for `COC(=O)[C@@H](C)Cn1c(=O)[nH]/c(=N\c2ccc(Oc3ccccn3)c(F)c2)n(Cc2ccc(C)cc2)c1=O` [Compound I-204] was 4 nM.
The value for `NC(=O)Cn1c(=O)[nH]/c(=N\c2ccc(Oc3ccccn3)cc2)n(Cc2ccc(Cl)cc2)c1=O` [Compound R-240, 1-(4-chlorobenzyl)-3-(carbamoylmethyl)-6-[4-(2-pyridyloxy)phenylimino]-1,3,5-triazinane-2,4-dione] was 11 nM; that for `O=c1[nH]/c(=N\c2ccc(Oc3ccc(F)cn3)cc2)n(Cc2ccc(Cl)cc2)c(=O)n1CC1(CO)COC1` [Compound R-084] was 6 nM; that for `CCc1oc2ccc(/N=c3\[nH]c(=O)[nH]c(=O)n3Cc3ccc(Cl)cc3)cc2c1C` [Compound R-173] was 376 nM.
`CC(=O)c1ccc(Oc2ccc(/N=c3\[nH]c(=O)n(C[C@H](C)C(=O)O)c(=O)n3Cc3ccc(Cl)cc3)cc2)nc1` [Compound I-259]: the IC50 was found to be 5 nM.
The value for `CC(C)(Cn1c(=O)[nH]/c(=N\c2ccc(Oc3cccnn3)c(F)c2)n(Cc2ccc(Cl)cc2)c1=O)C(=O)O` [Compound R-038] was 7 nM.
The value for `C[C@@H](Cn1c(=O)[nH]/c(=N\c2ccc(Oc3cccnn3)cc2)n(Cc2ccc(Cl)cc2)c1=O)C(=O)O` [Compound R-120] was 8 nM; that for `COC(=O)[C@H](C)[C@H](C)n1c(=O)[nH]/c(=N\c2ccc(Oc3cncc(F)c3)c(C)c2)n(Cc2ccc(Cl)cc2)c1=O` [Compound R-186] was 26 nM.
The figure for `C[C@@H](C(=O)O)[C@H](C)n1c(=O)[nH]/c(=N\c2ccc(Oc3cnccn3)cc2)n(Cc2ccc(Cl)cc2)c1=O` [Compound R-168] is 17 nM.
Take `COC(=O)[C@@H](C)Cn1c(=O)[nH]/c(=N\c2ccc(Oc3cc(Cl)ncn3)cc2)n(Cc2ccc(Cl)cc2)c1=O` [Compound R-046]: half-maximal inhibition (IC50) required 6 nM.
`COC(=O)[C@@H](C)Cn1c(=O)[nH]/c(=N\c2ccc(Oc3cncc(C)c3)cc2)n(Cc2ccc(Cl)cc2)c1=O` [Compound R-184] returned a 50% inhibitory concentration (IC50) of 10 nM.
The value for `COC(=O)CCn1c(=O)[nH]/c(=N\c2ccc(Oc3ccccn3)c(C)c2)n(Cc2ccc(C)cc2)c1=O` [Compound R-290] was 6 nM.
The value for `COCc1cccc(Oc2ccc(/N=c3\[nH]c(=O)n(C[C@H](C)C(=O)O)c(=O)n3Cc3ccc(C)cc3)cc2)n1` [Compound I-256] was 29 nM; that for `CCOC(=O)C1(Cn2c(=O)[nH]/c(=N\c3ccc(Oc4ncccc4F)cc3)n(Cc3ccc(Cl)cc3)c2=O)CC1` [Compound I-066] was 15 nM.
The value for `COC(=O)[C@@H](C)Cn1c(=O)[nH]/c(=N\c2ccc(Oc3nc(C)ns3)cc2)n(Cc2ccc(Cl)cc2)c1=O` [Compound R-135] was 5 nM.
For `COC(=O)[C@@H](C)Cn1c(=O)[nH]/c(=N\c2ccc(Oc3ccccn3)cc2)n(C[C@H]2CC[C@H](C)CC2)c1=O` [Compound I-142], the IC50 amounted to 7 nM.
The figure for `O=C(O)C1(Cn2c(=O)[nH]/c(=N\c3ccc(Oc4ncccc4F)cc3)n(Cc3ccc(Cl)cc3)c2=O)COC1` [Compound I-050] is 28 nM; for `Cc1ccc(Cn2c(=O)n(CC(C)(C)C(=O)O)c(=O)[nH]/c2=N\c2ccc(Oc3ccc(C)cn3)cc2)cc1` [Compound I-114] it is 6 nM; for `Cc1ccc(Cn2c(=O)n(CCC(=O)O)c(=O)[nH]/c2=N\c2ccc(Oc3ccccn3)c(C)c2)cc1` [Compound R-282] it is 23 nM.
The value for `CC(C)(Cn1c(=O)[nH]/c(=N\c2ccc(Oc3cc(O)nc(F)c3)cc2)n(Cc2ccc(Cl)cc2)c1=O)C(=O)O` [Compound R-126] was 10 nM.
